Assays:
[1] = test system: GBM39; test: Glioma cell viability (MTT) under XRT-TMZ with or without CRAd-S-pk7; assay type: cell-based; details: Homo sapiens, treated with XRT (2 Gy) simultaneously
Protocol: FIGS. 44A and 44B show the optimization of combination therapy in vitro according to one embodiment. (FIG. 44A): Cytotoxicity of U251 and U87 glioma cell lines and GBM39 patient-derived cell line treated with Rx-OV or OV-Rx. Left: The percentage of viability of glioma cells measured by 3-(4,5-dimethylthiazol-2-yl)-2,5-diphenyltetrazolium bromide 96 hours after treatment. Right: Representative light microscope pictures of U87 glioma cell viability (magnification, ×10). (FIG. 44B): Percentage of apoptotic GBM43 cells at 48 hours after treatment with Rx-OV or OV-Rx treatment protocols as measured by the expression of active caspase-3-positive tumor cells by FACS (bottom). […]
A green fluorescent protein (GFP) expressing HB1.F3-CD cell line was generated as described elsewhere (Ahmed et al. 2011a). […] Following lysate preparation, the mean fluorescence intensity (MFI) was estimated for each group of cocultured cells using the GloMax 20/20 Luminometer (Promega). […] U251, U87, and GBM39 cell viability was determined using 3-(4,5-dimethylthiazol-2-yl)-2,5-diphenyltetrazolium bromide (MTT) cell proliferation kit (Roche Diagnostics, Mannheim, Germany, http://www.roche-applied-science.com). The viability was subsequently determined by MTT as described by the manufacturer's protocol. Cell viability was expressed as the percentage of cells alive compared with the dimethyl sulfoxide-treated control. […]

[2] = test system: GBM43 glioma xenografts; test: Intracranial GBM43 xenograft: TMZ, XRT and CRAd-S-pk7-loaded NSCs; assay type: in vivo, nude mice
Protocol: FIGS. 43A, 43B and 43C illustrate the in vivo efficacy of CRAd-Survivin-pk7 (CRAd-S-pk7)-loaded NSCs and XRT-TMZ treatment against human-derived glioma xenografts according to one embodiment. Intracranial GBM43 (3.5×10^5 cells per animal) was established, and the animals were treated for 5 consecutive days beginning on day 6 after tumor cell implantation. (FIG. 43A): Survival of animals treated with escalating doses of intraperitoneally administered TMZ (0, 5, 10, or 30 mg/kg). (FIG. 43B): Survival of animals treated with XRT (2 Gy) or a combination of XRT (2 Gy) and TMZ (2.5, 5, 10, or 30 mg/kg). (FIG. 43C): Survival of animals treated with the optimized dose of 2 Gy XRT and 5 mg/kg TMZ in addition to 5×10^5 or 3×10^6 NSCs loaded with 50 infectious units of CRAd-S-pk7. […] Abbreviations: ND, not determined; ns, no significance; NSC, neural stem cell; TMZ, temozolomide; XRT, radiation therapy.
FIGS. 45A and 45B illustrate the scheduling of CRAd-Survivin-pk7 (CRAd-S-pk7)-loaded NSC administration in vivo according to one embodiment. (FIG. 45A): Survival of animals treated with both therapeutic scheduling protocols. […] For each treatment group, five images were taken using the […]20 objective, and the number of positive cells was quantified per field of view (right). *, p<0.05; **, p<0.01; ***, p<0.001. […]

For `Cn1nnc2c(C(N)=O)ncn2c1=O` [TMZ, temozolomide], the IC50 [1] was 50 µM, the “increase in survival vs XRT-treated animals” value ([2]; TMZ 5 mg/kg plus XRT 2 Gy ×5) was 7 days and the median survival ([2]; TMZ 5 mg/kg plus XRT 2 Gy ×5 (FIG. 43B)) was 31 days.

From patent US10709745B2, “Tropic cell based virotherapy for the treatment of cancer” (priority 2013, dated 2020)
